Target: T1, Paenibacillus lentus alkaline phosphatase AP1 (designated "Native"), serine (S) replacement for an aspartic acid (D), SEQ ID NO: 4 (Paenibacillus lentus, UniProt A0A3Q8S6G4, D102S)
T1 sequence (A0A3Q8S6G4 34-572 D102S): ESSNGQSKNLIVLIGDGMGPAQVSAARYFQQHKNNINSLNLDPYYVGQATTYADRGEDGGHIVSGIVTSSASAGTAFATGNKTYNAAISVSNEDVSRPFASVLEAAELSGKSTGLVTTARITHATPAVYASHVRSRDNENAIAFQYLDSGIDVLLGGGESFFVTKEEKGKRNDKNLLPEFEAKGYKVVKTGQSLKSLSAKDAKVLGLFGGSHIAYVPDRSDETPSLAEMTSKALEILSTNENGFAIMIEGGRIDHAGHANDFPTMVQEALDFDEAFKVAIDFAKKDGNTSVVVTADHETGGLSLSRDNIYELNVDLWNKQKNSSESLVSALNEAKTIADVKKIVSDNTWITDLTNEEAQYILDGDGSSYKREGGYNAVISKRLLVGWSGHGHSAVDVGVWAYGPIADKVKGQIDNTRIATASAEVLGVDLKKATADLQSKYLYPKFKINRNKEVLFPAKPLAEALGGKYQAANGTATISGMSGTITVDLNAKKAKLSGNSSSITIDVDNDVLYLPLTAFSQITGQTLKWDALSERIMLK
Assay: Phosphatase kinetics with p-NPP, AP1 ("Native")
Format: biochemical
Method: FIG. 7 presents effect of pH on (A)Vmax (IU/mg) and (B) KM (μM) activity of AP1 (designated “Native”) and APHT (designated “HT”). Assays were performed at 40° C. with p-NPP as substrate in the concentration range 0-5 mM. The enzyme concentration was 2.5 μg/mL for the pH 8 and 0.4 mg/mL for pH 9-13).
FIG. 8 presents effect of pH on (A)Vmax (IU/mg) and (B) KM (μM) activity of AP1 (designated “Native”) and APHT (designated “HT”). Assays were performed at 50° C. with p-NPP as substrate in the concentration range 0-5 mM. The enzyme concentration was 2.5 μg/mL for the pH 8 and 0.4 mg/mL for pH 9-13).
Enzymes, including lysozyme and alkaline phosphatase, are recognized as disruptors of bacterial debris and inflammation. These enzymes reduce inflammation, including by lysing the peptidoglycans and LPS of bacteria, thus deactivating them and thereby bypassing the inflammatory response. An alkaline phosphatase was initially identified and modified from Paenibacillus lentus bacteria and expressed for application and use as a farm animal feed additive. This modified alkaline phosphatase is characterized by having a serine (S) replacement for an aspartic acid (D) in the native bacterial alkaline phosphatase protein sequence and is designated herein as AP1. […] The AP1 alkaline phosphate is described including in U.S. Pat. No. 9,326,535 issued May 3, 2016. The sequence of AP1 is as follows (the serine is in bold and underlined) (SEQ ID NO:4):
• 1 M DEA Buffer pH 10. Dissolve 10.5 g of diethanolamine in to 100 ml of water. The pH adjust with 1 M hydrochloric acid or 1 M NaOH. Filter sterilize and store at 4 C. • 0.5 M Tris Base Buffer pH 10 and 8. Dissolve 6.06 g of Tris in to 100 ml of water. The pH adjust with 1 M hydrochloric acid or 1 M NaOH. Filter sterilize and store at 4 C. • 0.1 M Borate Buffer pH 11 and 12. Dissolve 0.62 g Boric acid, 0.44 g NaCl and Sodium tetraborate 0.95 g in 100 ml H2O. The pH adjust with 1 M hydrochloric acid or 1 M NaOH. Filter sterilize and store at 4 C. • 1 M KCl/NaOH Buffer pH 13. Dissolve 7.4 g KCl in 100 ml water. The pH adjust with 1 M NaOH. Filter sterilize and store at 4 C. • 1 M MgCl2, 23.8 g MgCl2 anhydrous in […] water. Filter sterilize and store at 4 C 3. Activity Assay: p-NPP Substrate
Reactions were carried out at 40° C. using 50 mM Tris buffer pH 7 with 50 mM MgCl2 and at 50° C. using 50 mM DEA buffer pH 10 with 50 mM MgCl2. Enzyme was thawed, aliquoted in 500 μL vials and freeze at −80° C. For 100 μL volume of reaction, components were mixed in 96-well microplate (Fisher 12565501) following the order in TABLE 1. Every reaction condition was done by triplicated at least.
After the adding enzyme, the absorption of product was followed at 405 nm over 5 min in a M5 plate reader with intervals of 20 s. Initial rate was determined for each curve and product formed calculated using the extinction coefficient of 18.5 mM^−1·cm^−1 and a calculated pathlength of 0.5 cm. Initial rates where fitted to Michalis Menten model built in the Kaleidagraph software.
pH effect on enzyme activity was tested at 40 and 50° C. in the corresponding buffer with 50 mM MgCl2 using p-NPP as substrate in the concentration range 0-5.0 mM. The reaction started with the addition of enzyme (2.5 μg/mL for pH 8 and 0.4 μg/mL for pH 9-13) and the absorption at 405 nm was followed for 5 min. Every reaction condition was done by triplicated at least. The initial rates where fitted to Michalis Menten model built in the software Kaleidagraph.

Compound: O=[N+]([O-])c1ccc(OP(=O)(O)O)cc1 [p-NPP, p-nitrophenylphosphate]
- Km (40° C., Borate pH 11): 3340 µM
- Km (40° C., DEA pH 10): 776 µM
- Km (40° C., Tris pH 8): 65 µM
- Km (40° C., Tris pH 9): 315 µM
- Km (50° C., Borate pH 11): 573 µM
- Km (50° C., Borate pH 12): 293 µM
- Km (50° C., KCl/NaOH (pH printed 204; Table 2: 13.0)): 64 µM
- Km (50° C., Tris pH 8): 383 µM
- Km (50° C., Tris pH 9): 1440 µM
